This note sets out measurements from PMC4833520 (Bioorganic & medicinal chemistry, 2016).

Experiment [1] has as its target σ1 receptor (Cavia porcellus, UniProt Q60492). The experiment can be described thus: PDSP radioligand binding, σ1 receptor.
Experiment [2] concerns the target human dopamine D1 receptor (Homo sapiens, UniProt P21728). The experiment can be described thus: PDSP radioligand binding, dopamine D1 receptor. The settings on record: ratio of Ki values.

Sequence of human dopamine D1 receptor (P21728 whole entry): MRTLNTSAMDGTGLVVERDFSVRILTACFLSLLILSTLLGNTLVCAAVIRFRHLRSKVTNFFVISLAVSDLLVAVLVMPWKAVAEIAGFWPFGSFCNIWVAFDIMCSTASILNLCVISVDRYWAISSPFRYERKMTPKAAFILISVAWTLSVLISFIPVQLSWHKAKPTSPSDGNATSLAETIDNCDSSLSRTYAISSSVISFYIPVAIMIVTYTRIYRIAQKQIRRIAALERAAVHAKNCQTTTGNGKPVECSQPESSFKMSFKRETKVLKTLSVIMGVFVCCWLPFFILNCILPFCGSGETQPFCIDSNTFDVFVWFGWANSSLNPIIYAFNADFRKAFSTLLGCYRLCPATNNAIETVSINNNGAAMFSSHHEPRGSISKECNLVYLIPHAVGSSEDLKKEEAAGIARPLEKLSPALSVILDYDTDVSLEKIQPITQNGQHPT
Sequence of σ1 receptor (Q60492 whole entry): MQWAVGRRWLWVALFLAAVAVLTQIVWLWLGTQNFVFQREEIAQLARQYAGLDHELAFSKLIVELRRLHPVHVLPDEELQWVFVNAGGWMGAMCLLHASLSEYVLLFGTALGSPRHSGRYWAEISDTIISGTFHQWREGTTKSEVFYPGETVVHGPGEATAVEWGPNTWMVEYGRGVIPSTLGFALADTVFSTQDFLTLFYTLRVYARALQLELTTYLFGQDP

As for `CCCCCCOc1ccc2c(c1OC)CN1CCc3cc(OC)c(O)cc3C1C2` (centres unmarked) [Compound 15, 10-(Hexyloxy)-3,9-dimethoxy-5,8,13,13a-tetrahydro-6H-isoquinolino[3,2-a]isoquinolin-2-ol], in experiment [1], the “selectivity for σ1 versus σ2 receptors” value is on record as “approximately 3 fold”.
Regarding `COc1cc2c(cc1O)C1Cc3ccc(OCCCO)c(OC)c3CN1CC2` (centres unmarked) [Compound 16, 10-(3-Hydroxypropoxy)-3,9-dimethoxy-5,8,13,13a-tetrahydro-6H-isoquinolino[3,2-a]isoquinolin-2-ol], the “Selectivity D3/D1” value in experiment [2] stood at 16.
